Data from PMC11094793, “Discovery of LLC0424 as a Potent and Selective in Vivo NSD2 PROTAC Degrader” (Journal of Medicinal Chemistry, 2024).

Biological target: T1, NSD2 (Homo sapiens, UniProt O96028)
T1 sequence (O96028 1-1365): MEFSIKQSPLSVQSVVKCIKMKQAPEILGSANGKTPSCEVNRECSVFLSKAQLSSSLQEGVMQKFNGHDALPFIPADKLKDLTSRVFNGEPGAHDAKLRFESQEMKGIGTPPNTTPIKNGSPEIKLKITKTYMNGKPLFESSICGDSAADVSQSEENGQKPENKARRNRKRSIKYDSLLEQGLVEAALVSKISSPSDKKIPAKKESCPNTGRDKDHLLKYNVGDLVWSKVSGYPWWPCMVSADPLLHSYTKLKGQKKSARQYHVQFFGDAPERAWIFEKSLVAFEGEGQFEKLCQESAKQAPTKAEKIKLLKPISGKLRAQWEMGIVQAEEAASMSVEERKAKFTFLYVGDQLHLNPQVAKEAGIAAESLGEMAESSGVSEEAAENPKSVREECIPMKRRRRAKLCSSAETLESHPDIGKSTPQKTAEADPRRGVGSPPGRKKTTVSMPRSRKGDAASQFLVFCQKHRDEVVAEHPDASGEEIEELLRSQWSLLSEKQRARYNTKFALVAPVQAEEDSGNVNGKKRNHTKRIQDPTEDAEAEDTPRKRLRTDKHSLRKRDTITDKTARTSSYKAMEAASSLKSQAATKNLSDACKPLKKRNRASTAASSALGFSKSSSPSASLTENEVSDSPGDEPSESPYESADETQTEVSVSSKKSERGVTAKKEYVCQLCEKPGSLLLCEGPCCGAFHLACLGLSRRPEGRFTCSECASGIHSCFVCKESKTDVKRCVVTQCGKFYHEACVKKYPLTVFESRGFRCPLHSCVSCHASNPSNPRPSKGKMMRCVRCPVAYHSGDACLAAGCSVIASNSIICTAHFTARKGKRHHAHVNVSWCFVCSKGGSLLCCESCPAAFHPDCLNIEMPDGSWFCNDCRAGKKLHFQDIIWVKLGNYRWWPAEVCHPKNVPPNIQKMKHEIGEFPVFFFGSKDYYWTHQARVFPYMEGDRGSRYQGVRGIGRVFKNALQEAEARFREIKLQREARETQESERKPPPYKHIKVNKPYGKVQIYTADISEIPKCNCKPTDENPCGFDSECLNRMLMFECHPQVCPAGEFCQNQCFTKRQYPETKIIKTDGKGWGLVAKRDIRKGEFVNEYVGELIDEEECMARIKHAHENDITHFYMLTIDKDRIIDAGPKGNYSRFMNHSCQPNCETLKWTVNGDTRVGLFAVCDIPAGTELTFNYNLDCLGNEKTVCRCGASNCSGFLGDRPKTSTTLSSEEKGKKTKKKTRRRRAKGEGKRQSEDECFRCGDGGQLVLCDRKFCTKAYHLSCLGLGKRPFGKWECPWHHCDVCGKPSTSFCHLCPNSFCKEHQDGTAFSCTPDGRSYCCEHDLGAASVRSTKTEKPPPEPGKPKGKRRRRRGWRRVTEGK
Test: Pharmacodynamic assessment in 22RV1 xenograft model
Format: in vivo, mice
Set-up: from tissue; host or cells: 22RV1 subcutaneous xenograft tumours in CB17 SCID mice
Details: 5 consecutive days
Protocol: We finally performed pharmacodynamic assessment of LLC0424 in both the SEM and 22RV1 xenograft model. Based on the solubility of LLC0424 and the tolerance of the mice, we chose 60 mg/kg as the dosage for the pharmacodynamic study. LLC0424 was administrated by intravenous (iv) or intraperitoneal (ip) injection at a dose of 60 mg/kg for 5 consecutive days. The tumor tissues were harvested at day 5 and subjected to histology and Western blot analysis (Figure 7A, and SI, Figure S6A).
First, 6–8 weeks old male CB17 severe combined immunodeficiency (SCID) mice were procured from the University of Michigan breeding colony. Subcutaneous tumors were established at both sides of the dorsal flank of mice. Tumors were measured at least biweekly using digital calipers following the formula (π/6) (L × W2), where L is length and W is width of the tumor. At the end of the studies, mice were sacrificed and tumors extracted. For each tumor, a part is […] followed by embedding in paraffin to make tissue blocks. The blocks were sectioned at […] for immunohistochemistry analysis. Another part is made into tissue lysates for Western blotting analysis. The University of Michigan Institutional Animal Care and Use Committee (IACUC) approved all in vivo studies. […]

## O=C1CCC(N2C(=O)c3ccc(N4CCC(NC(=O)c5ccc(NC(=O)c6ccc(CN(C(=O)c7ccc8c(c7)OCC(=O)N8)C7CC7)cc6)cc5)CC4)cc3C2=O)C(=O)N1 (centres unmarked) [compound 10l, N-Cyclopropyl-N-(4-((4-((1-(2-(2,6-dioxopiperidin-3-yl)-1,3-dioxoisoindolin-5-yl)piperidin-4-yl)carbamoyl)phenyl)carbamoyl)benzyl)-3-oxo-3,4-dihydro-2H-benzo[b][1,4]oxazine-7-carboxamide]
60 mg/kg iv or ip, versus vehicle
  NSD2 level in tumor tissue: significantly downregulated
60 mg/kg
  NSD2 degradation, iv versus ip administration: comparable level of NSD2 degradation
